This is an account of results in patent US11883492B2, “Combination treatment of chemoresistant cancers” (THE REGENTS OF THE UNIVERSITY OF CALIFORNIA, priority 2018, dated 2024).

One experiment has as its system AKT, BMI1. Kind of experiment: Wnt5a-induced AKT activation and BMI1 expression (immunoblot). Type of experiment: cell-based. Conditions: wt-Hs578T. The protocol:
FIGS. 8A-8B. The figures show Enhanced BMI1 Expression Induced By Wnt5a Is Dependent On Activation Of AKT. (FIG. 8A), BMI1 mRNA level in Hs578T cells treated with Wnt5a at 100 ng/ml at indicated time point were examined by quantitative PCR (qPCR). Data shown were the mean expression levels of BMI1 relative to time 0 samples in triplicate and normalized with respect to GAPDH. Error bars indicate SEM. (FIG. 8B), Hs578T cells were cultured in serum-free medium, pre-treated with or without MK-2206 for 3 hours, and then stimulated with or without Wnt5a at 100 ng/ml for 6 hours. BMI1, pAKT and AKT were examined on these samples via immunoblot analyses. Numbers below the row for AKT provide the ratios of band densities of pAKT to AKT that were normalized to that of samples treated for 0 minutes with Wnt5a. β-Actin served as protein-loading control. Numbers below the row for BMI1 provide the ratios of band densities of BMI1 to β-Actin, normalized with respect to that of samples treated for 0 minutes with Wnt5a.
Immunoblot analyses. Cells used for examination for proteins via immunoblot analysis were treated with control antibody or cirmtuzumab (50 μg/ml) for overnight and then were cultured in medium supplemented with or without recombinant Wnt5a (100 ng/ml). […] The protein concentration was determined using a bicinchoninic acid protein assay (Pierce). […]
For orientation: Immunoblotting shows a protein as a band on a membrane.

The subject of experiment [1] is breast cancer PDX (PDX4, PDX5). As to the kind of experiment: Tumor growth of breast-cancer PDX in mice. Type of experiment: in vivo, Rag2−/−γc−/− mice. The text has this:
(§1) Patient-Derived xenografts. Four-to-eight-week-old female Rag2−/−γc−/− mice were used in this study following the care and use of laboratory animal guidelines of National Institutes of Health (NIH). The UC San Diego Medical Experimental Animal Care Committee approved the study protocol. The mice were housed in laminar-flow cabinets under specific pathogen-free conditions and fed ad libitum. The PDX were established using mechanically minced fresh breast cancer specimens. Early passage (P1-P5) of primary tumor tissues from these PDX models were mechanically minced, enzymatically and mechanically dissociated using GentleMACS Dissociator (Miltenyi Biotec), in accordance to the manufacturer's instruction. Erythrocytes were removed via density gradient centrifugation in Percoll™ Plus (GE Healthcare Life Sciences, CC-17-5442-01).
Tumorigenicity Assay. Cells were suspended in Mammary-Epithelial Growth Medium (MEGM), mixed with Matrigel (BD Biosciences, San Diego, CA) at a 1:1 ratio, and then transplanted into the mammary pads of Rag2−/−γc−/− mice. We monitored the mice weekly for the development of tumors. We extirpated the tumor to examine the tumor cells for expression of ROR1 at 10 days after treatment with 13.4 mg/kg paclitaxel via intravenously injection for consecutive 5 days. To examine for metastases, we harvested the lungs of 6 mice from each treatment group at 42 or 48 days post-transplantation and fixed the tissue with 10%-formalin, prior to embedding in paraffin. Each paraffin block was cut into 200-μm sections. Tumor foci were scored in a blinded fashion by a board-certified pathologist. To test whether cirmtuzumab alone or in combination with paclitaxel impaired engraftment of primary breast tumor cells, 1×10^5 single cells isolated from PDX4 or PDX5 were injected into the mammary pads of 4- to 6-week-old Rag2−/−γc−/− mice. […]
Control groups were injected with hIgG instead of cirmtuzumab. The tumor volume (v) was determined using the formula v=(length)×(width)2×0.4.

Experiment [2] has as its system PDX5. Kind of experiment: Proportion of ROR1+ cells in residual PDX5 tumors after paclitaxel (flow cytometry). Type of experiment: in vivo, Rag2−/−γc−/− mice. Conditions: PDX5, mice treated with paclitaxel 13.4 mg/kg; untreated 8.5%±5.8%. The protocol:
(§2) Tumorigenicity Assay. Cells were suspended in Mammary-Epithelial Growth Medium (MEGM), mixed with Matrigel (BD Biosciences, San Diego, CA) at a 1:1 ratio, and then transplanted into the mammary pads of Rag2−/−γc−/− mice. We monitored the mice weekly for the development of tumors. We extirpated the tumor to examine the tumor cells for expression of ROR1 at 10 days after treatment with 13.4 mg/kg paclitaxel via intravenously injection for consecutive 5 days. To examine for metastases, we harvested the lungs of 6 mice from each treatment group at 42 or 48 days post-transplantation and fixed the tissue with 10%-formalin, prior to embedding in paraffin. Each paraffin block was cut into 200-μm sections. Tumor foci were scored in a blinded fashion by a board-certified pathologist. To test whether cirmtuzumab alone or in combination with paclitaxel impaired engraftment of primary breast tumor cells, 1×10^5 single cells isolated from PDX4 or PDX5 were injected into the mammary pads of 4- to 6-week-old Rag2−/−γc−/− mice. When tumor size reached 300 mm3, 13.4 mg/kg paclitaxel was injected intravenously for consecutive 5 days or/and 10 mg/kg of cirmtuzumab was injected intravenously at day 0, day 7 and then biweekly.
(§3) Flow cytometry analysis. […]
On the technique in general: In flow cytometry, cells or beads pass a laser one at a time.

In experiment [3] the test system is PDX4. Kind of experiment: Proportion of ROR1+ cells in residual PDX4 tumors after paclitaxel (flow cytometry). Type of experiment: in vivo, Rag2−/−γc−/− mice. Conditions: PDX4, mice treated with paclitaxel 13.4 mg/kg; untreated 4.5%±1.1%. The protocol: as §2, §3
In experiment [4] the test system is PDX4. As to the kind of experiment: Tumorigenicity (re-engraftment) assay with tumor cells of PDX4 removed from treated mice. The conditions noted are these: for Tumor incidence (mice with tumors/mice implanted): cells isolated from PDX4 of paclitaxel-treated mice (Table 6, FIG. 2E). Type of experiment: in vivo, Rag2−/−γc−/− mice.
From the text: as §1, §2

A further experiment relates to tumor cells from PDX4. Kind of experiment: Cytotoxicity of paclitaxel on PDX tumor cells in vitro after cirmtuzumab or hIgG. Type of experiment: cell-based. Conditions: Homo sapiens. How it is done: FIG. 10. […] Single cell suspension of PDX4 or PDX5 samples were treated with cirmtuzumab or control antibody with or without increasing concentration of paclitaxel for 24 hours. Data are shown as the mean (±SEM) percentage of viable cells of triplicated samples from each of the treatments as determined by flow cytometry analysis. An asterisk indicates P<0.05 and ** indicates P<0.01 as determined by Student's t-Test.
We treated equivalent numbers of tumor cells from PDX4 or PDX5 with cirmtuzumab or control hIgG at 50 μg/ml overnight and then cultured the cells in separate wells in triplicate with increasing concentrations of paclitaxel.

A further experiment relates to breast cancer PDX. As to the kind of experiment: Capacity of PDX tumor cells from treated mice to form secondary PDX. Type of experiment: in vivo, Rag2−/−γc−/− mice. The conditions noted are these: cirmtuzumab 10 mg/kg, paclitaxel 13.4 mg/kg or both (FIG. 5C).
From the text: as §1
Tumorigenicity Assay. Cells were suspended in Mammary-Epithelial Growth Medium (MEGM), mixed with Matrigel (BD Biosciences, San Diego, CA) at a 1:1 ratio, and then transplanted into the mammary pads of Rag2−/−γc−/− mice. We monitored the mice weekly for the development of tumors. We extirpated the tumor to examine the tumor cells for expression of ROR1 at 10 days after treatment with 13.4 mg/kg paclitaxel via intravenously injection for consecutive 5 days. […] Tumor foci were scored in a blinded fashion by a board-certified pathologist. […]

The next experiment concerns PDX4 or PDX5. As to the kind of experiment: CSC features (ALDH1, spheroids, Matrigel invasion, re-engraftment) of PDX tumors from paclitaxel-treated mice. Type of experiment: in vivo, Rag2−/−γc−/− mice. How it is done: as §2, §3
Experiment [5] deals with PDX5. Kind of experiment: Tumorigenicity (re-engraftment) assay with tumor cells of PDX5 removed from treated mice. Conditions: for Tumor incidence (mice with tumors/mice implanted): cells isolated from PDX5 of paclitaxel-treated mice (Table 6, FIG. 2E). Type of experiment: in vivo, Rag2−/−γc−/− mice.
From the text: as §1, §2

As for `NC1(c2ccc(-c3nc4ccn5c(=O)[nH]nc5c4cc3-c3ccccc3)cc2)CCC1` [MK-2206], in the experiment on AKT, BMI1, the “Wnt5a-enhanced expression of BMI1” value is recorded as “inhibited the capacity of Wnt5a to enhance expression of BMI1” and the “Wnt5a-induced activation of AKT” value was “impaired the capacity of Wnt5a to induce activation of AKT”.

Turning to `CC(=O)O[C@H]1C(=O)[C@@]2(C)[C@H]([C@H](OC(=O)c3ccccc3)[C@]3(O)C[C@H](OC(=O)[C@H](O)[C@@H](NC(=O)c4ccccc4)c4ccccc4)C(C)=C1C3(C)C)[C@]1(OC(C)=O)CO[C@@H]1C[C@@H]2O` [paclitaxel], the “Tumor response of secondary PDX” value in [1] (13.4 mg/kg for five consecutive days when PDX reached 300 mm^3 (FIG. 2A)) was “tumor regression”. Moreover, in experiment [1] (cirmtuzumab 10 mg/kg, paclitaxel 13.4 mg/kg or the combination (FIG. 5A)), the “Tumor growth / tumor volumes in PDX4- or PDX5-bearing mice” value is “inhibited tumor growth relative to that of control-treated animals”. Besides, the “Tumor regrowth after therapy” value in [1] (tumors derived from PDX with high proportions of ROR1+ cells (e.g. PDX4 or PDX5), 13.4 mg/kg for five days) is “re-grew shortly after therapy”. Also, the entries for the “Proportion of ROR1+ cells in residual tumors” value with PDX5 [2] and with PDX4 [3] were 56.4%±6.4% and 61.7%±7.0%, respectively. In addition, the “Mice that developed PDX/mice engrafted” value in the experiment with PDX4 [4] (1 × 10^4 cells from PDX4 that relapsed after therapy (Table 8, FIG. 5C)) was 5/5; with PDX4 [4] (1 × 10^5 cells from PDX4 that relapsed after therapy (Table 8, FIG. 5C)) it was 5/5; in the experiment on PDX5 [5] (1 × 10^4 cells from PDX5 that relapsed after therapy (Table 8, FIG. 5C)), 3/3; in the experiment on PDX5 [5] (1 × 10^5 cells from PDX5 that relapsed after therapy (Table 8, FIG. 5C)), 4/5. For the same compound, the “Tumor incidence (mice with tumors/mice implanted)” value was 4/5 in the experiment with PDX4 [4] (10^3 cells re-implanted), 5/5 with PDX4 [4] (10^4 cells re-implanted), 4/5 in the experiment on PDX5 [5] (10^3 cells re-implanted) and 5/5 in the experiment on PDX5 [5] (10^4 cells re-implanted). Also, the “Frequency of Tumorigenic Cell” value in the experiment with PDX4 [4] (PDX4 from paclitaxel-treated mice, ELDA software (Table 6)) is listed as 1/622; with PDX5 [5] (PDX5 from paclitaxel-treated mice, ELDA software (Table 6)), 1/622. For the same compound, the figures for the IC50 with tumor cells from PDX4 (with cirmtuzumab 50 μg/ml overnight (FIG. 10)) and with tumor cells from PDX4 (with non-specific hIgG 50 μg/ml overnight (FIG. 10)) were 1 ± 1 µM and 23 ± 1 µM, respectively. Also, the “Capacity of tumor cells of PDX that relapsed after therapy to re-engraft immune-deficient mice” value in the experiment with breast cancer PDX was “readily developed secondary PDX”. The “Cells able to form spheroids, invade Matrigel or re-engraft in tumors of treated mice” value in the experiment on PDX4 or PDX5 (versus matched tumors of untreated mice or the original PDX (FIG. 2C-2E)) is on record as “enriched for cells that could form spheroids, invade Matrigel, or re-engraft”. Besides, the “Proportion of ALDH1-expressing cells in tumors of treated mice” value with PDX4 or PDX5 (versus matched tumors of untreated mice or the original PDX (FIG. 7J)) was “higher proportions of ALDH1-expressing cells”.
